Experiment [1] deals with human GLP-1R (Homo sapiens, UniProt P43220, G168S). Briefly: CHO GLP-1R Clone H6 cAMP HTRF agonist assay (Assay 1, high receptor density). The conditions noted are these: for EC50: CHO GLP-1R clone H6, cAMP HTRF, geometric mean; for Emax: CHO GLP-1R clone H6, arithmetic mean, relative to saturating GLP-1 (1 μM), read-out: Assay 1 Emax (%). In kind it is cell-based. In a few lines: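 Two significant figures are used throughout. Each EC50 is the geometric mean of its replicates, and each Emax is the arithmetic mean.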
A general note: In TR-FRET formats the signal depends on donor and acceptor labels being close together.

Experiment [2] concerns the target human GLP-1R (Homo sapiens, UniProt P43220, L260F). Briefly: CHO GLP-1R Clone C6 cAMP HTRF agonist assay (Assay 2, low receptor density). The format is cell-based. The following applies: for EC50: CHO GLP-1R clone C6, cAMP HTRF, geometric mean; for Emax: CHO GLP-1R clone C6, arithmetic mean, relative to saturating GLP-1 (1 μM). From the text: In Table 5 and Table 6, assay data are presented to two (2) significant figures as the geometric mean (EC50s) and arithmetic mean (Emax) based on the number of replicates listed (Number). A blank cell means there was no data for that Example or the Emax was not calculated.

The term EC50 denotes the concentration at which the effect is half-maximal. A high value points to weaker potency. A word on the Emax: it is the size of the effect at its maximum, as opposed to the concentration needed.

Each structure is given as a SMILES string.

human GLP-1R (Homo sapiens, UniProt P43220, G168S), sequence (P43220 24-463 G168S): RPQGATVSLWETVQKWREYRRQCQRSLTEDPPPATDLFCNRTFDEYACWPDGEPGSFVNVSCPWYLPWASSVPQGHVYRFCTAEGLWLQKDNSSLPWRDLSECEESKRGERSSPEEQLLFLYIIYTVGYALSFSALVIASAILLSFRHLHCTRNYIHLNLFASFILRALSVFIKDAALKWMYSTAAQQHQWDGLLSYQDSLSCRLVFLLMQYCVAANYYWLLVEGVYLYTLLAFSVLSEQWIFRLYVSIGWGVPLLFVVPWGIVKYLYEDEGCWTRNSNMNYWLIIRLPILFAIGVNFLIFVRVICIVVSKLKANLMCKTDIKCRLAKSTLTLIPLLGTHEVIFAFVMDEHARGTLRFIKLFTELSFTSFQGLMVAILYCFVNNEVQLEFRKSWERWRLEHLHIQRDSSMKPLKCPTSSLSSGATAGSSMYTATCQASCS
human GLP-1R (Homo sapiens, UniProt P43220, L260F), sequence (P43220 24-463 L260F): as the sequence (P43220 24-463 G168S) above, with S145G, L237F counted along it

Turning to `Cc1cc(C)n(CCn2c(CN3CCC(c4cccc(OCc5ccc(Cl)cc5F)n4)CC3)nc3ccc(C(=O)O)cc32)n1` [Compound 332B, 2-[(4-{6-[(4-chloro-2-fluorobenzyl)oxy]pyridin-2-yl}piperidin-1-yl)methyl]-1-[2-(3,5-dimethyl-1H-pyrazol-1-yl)ethyl]-1H-benzimidazole-6-carboxylic acid], on human GLP-1R [1], the concentration for a half-maximal effect (EC50) stood at 5.3 nM and the maximal response (Emax) was 76%. Further, on human GLP-1R [2], the EC50 was found to be 21 nM and the Emax was found to be 84%.
For `CCN1CCC(Cn2c(CN3CCC(c4cccc(OCc5ccc(Cl)cc5F)n4)CC3)nc3ccc(C(=O)O)cc32)C1` (stereo not drawn) [Compound 278B, 2-[(4-{6-[(4-chloro-2-fluorobenzyl)oxy]pyridin-2-yl}piperidin-1-yl)methyl]-1-[(1-ethylpyrrolidin-3-yl)methyl]-1H-benzimidazole-6-carboxylic acid], in that order: 9.4 nM, 69%, 94 nM and 92%.
As for `CCOC(C)Cn1c(CN2CCC(c3cccc(OCc4ccc(Cl)cc4F)n3)CC2)nc2ccc(C(=O)O)cc21` (stereo not drawn) [Compound 293B, 2-[(4-{6-[(4-chloro-2-fluorobenzyl)oxy]pyridin-2-yl}piperidin-1-yl)methyl]-1-(2-ethoxypropyl)-1H-benzimidazole-6-carboxylic acid], on human GLP-1R [1], the midpoint of the response, the EC50, lay at 56 nM and the maximal effect (Emax) worked out at 81%. On human GLP-1R [2], this compound returned a half-maximal effective concentration (EC50) of 590 nM and a maximal effect (Emax) of 85%.
For the compound `COCC1(Cn2c(CN3CCC(c4cccc(OCc5ccc(Cl)cc5F)n4)CC3)nc3ccc(C(=O)O)cc32)CCC1` [Compound 347B, 2-[(4-{6-[(4-chloro-2-fluorobenzyl)oxy]pyridin-2-yl}piperidin-1-yl)methyl]-1-{[1-(methoxymethyl)cyclobutyl]methyl}-1H-benzimidazole-6-carboxylic acid], the concentration giving a half-maximal response (EC50) was 6.9 nM on human GLP-1R [1] and 170 nM at human GLP-1R [2]. The Emax on human GLP-1R [1] came out at 78%; on human GLP-1R [2], 96%.
On to `O=C(O)c1ccc2nc(CN3CCC(c4cccc(OCc5ccc(Cl)cc5F)n4)CC3)n(CCc3c[nH]cn3)c2c1` [Compound 316B, 2-[(4-{6-[(4-chloro-2-fluorobenzyl)oxy]pyridin-2-yl}piperidin-1-yl)methyl]-1-[2-(1H-imidazol-4-yl)ethyl]-1H-benzimidazole-6-carboxylic acid], for which, on human GLP-1R [1], a half-maximal effect (EC50) was put at 450 nM and the Emax was determined as 71%. On human GLP-1R [2], this compound returned a 50% effective concentration (EC50) of 5600 nM and a maximal effect (Emax) of 76%.
For `Cn1cnc(Cn2c(CN3CCC(c4cccc(OCc5ccc(Cl)cc5F)n4)CC3)nc3ccc(C(=O)O)cc32)c1` [Compound 255B, 2-[(4-{6-[(4-chloro-2-fluorobenzyl)oxy]pyridin-2-yl}piperidin-1-yl)methyl]-1-[(1-methyl-1H-imidazol-4-yl)methyl]-1H-benzimidazole-6-carboxylic acid] the same measures were 190 nM, 62%, 5800 nM and 85%.
For `Cn1cnnc1Cn1c(CN2CCC(c3cccc(OCc4ccc(C#N)cc4F)n3)CC2)nc2ccc(C(=O)O)cc21` [Compound 188B, 2-[(4-{6-[(4-cyano-2-fluorobenzyl)oxy]pyridin-2-yl}piperidin-1-yl)methyl]-1-[(4-methyl-4H-1,2,4-triazol-3-yl)methyl]-1H-benzimidazole-6-carboxylic acid], in that order: 2.4 nM, 71%, 38 nM and 83%.
For `Cn1ccnc1Cn1c(CN2CCC(c3cccc(OCc4ccc(Cl)cc4F)n3)CC2)nc2ccc(C(=O)O)cc21` [Compound 256B, 2-[(4-{6-[(4-chloro-2-fluorobenzyl)oxy]pyridin-2-yl}piperidin-1-yl)methyl]-1-[(1-methyl-1H-imidazol-2-yl)methyl]-1H-benzimidazole-6-carboxylic acid], in that order: 3.4 nM, 79%, 53 nM and 68%.
`Cn1c(CN2CCC(c3cccc(OCc4ccccc4OC(F)(F)F)n3)CC2)nc2ccc(C(=O)O)cc21` [Compound 229B, 1-methyl-2-{[4-(6-{[2-(trifluoromethoxy)benzyl]oxy}pyridin-2-yl)piperidin-1-yl]methyl}-1H-benzimidazole-6-carboxylic acid]: on human GLP-1R [1], the concentration giving a half-maximal response (EC50) stood at 1 nM and the maximal effect (Emax) was 76%. For the same compound, on human GLP-1R [2], the midpoint of the response, the EC50, lay at 19 nM and the maximal response (Emax) amounted to 75%.
For `COCCn1cnnc1Cn1c(CN2CCC(c3cccc(OCc4ccc(Cl)cc4F)n3)CC2)nc2ccc(C(=O)O)cc21` [Compound 294B, 2-[(4-{6-[(4-chloro-2-fluorobenzyl)oxy]pyridin-2-yl}piperidin-1-yl)methyl]-1-{[4-(2-methoxyethyl)-4H-1,2,4-triazol-3-yl]methyl}-1H-benzimidazole-6-carboxylic acid], in that order: 72 nM, 76%, 1500 nM and 81%.
With `CCn1cncc1Cn1c(CN2CCC(c3cccc(OCc4ccc(C#N)cc4F)n3)CC2)nc2ccc(C(=O)O)cc21` [Compound 162B, 2-[(4-{6-[(4-cyano-2-fluorobenzyl)oxy]pyridin-2-yl}piperidin-1-yl)methyl]-1-[(1-ethyl-1H-imidazol-5-yl)methyl]-1H-benzimidazole-6-carboxylic acid], on human GLP-1R [1], a half-maximal effect (EC50) was put at 0.34 nM and the Emax was determined as 78%. Further, on human GLP-1R [2], a half-maximal effect (EC50) was put at 7.4 nM and the Emax came to 94%.
For the compound `C[C@H]1CN(c2cccc(OCc3ccc(Cl)cc3F)n2)CCN1Cc1nc2ccc(C(=O)O)nc2n1C[C@@H]1CCO1` [Compound 136B, 2-{[(2S)-4-{6-[(4-chloro-2-fluorobenzyl)oxy]pyridin-2-yl}-2-methylpiperazin-1-yl]methyl}-3-[(2S)-oxetan-2-ylmethyl]-3H-imidazo[4,5-b]pyridine-5-carboxylic acid], on human GLP-1R [1], a half-maximal response (EC50) required 150 nM and the Emax turned out to be 86%. On human GLP-1R [2], the concentration for a half-maximal effect (EC50) came out at 4100 nM and the Emax came to 110%.
As to `Cn1nncc1Cn1c(CN2CCC(c3cccc(OCc4ccc(Cl)cc4F)n3)CC2)nc2ccc(C(=O)O)cc21` [Compound 144B, 2-[(4-{6-[(4-chloro-2-fluorobenzyl)oxy]pyridin-2-yl}piperidin-1-yl)methyl]-1-[(1-methyl-1H-1,2,3-triazol-5-yl)methyl]-1H-benzimidazole-6-carboxylic acid], at human GLP-1R [1], the midpoint of the response, the EC50, lay at 5.8 nM and the Emax was determined as 72%. Moreover, at human GLP-1R [2], a half-maximal response (EC50) required 94 nM and the maximal effect (Emax) was 76%.
For `CN1CCC(CCn2c(CN3CCC(c4cccc(OCc5ccc(Cl)cc5F)n4)CC3)nc3ccc(C(=O)O)cc32)CC1` [Compound 282B, 2-[(4-{6-[(4-chloro-2-fluorobenzyl)oxy]pyridin-2-yl}piperidin-1-yl)methyl]-1-[2-(1-methylpiperidin-4-yl)ethyl]-1H-benzimidazole-6-carboxylic acid] the same measures were 15 nM, 83%, 230 nM and 110%.
For `COCCn1c(CN2CCC(c3cccc(OCc4ccc(Cl)cc4F)n3)CC2)nc2ncc(C(=O)O)nc21` [Compound 207B, 2-[(4-{6-[(4-chloro-2-fluorobenzyl)oxy]pyridin-2-yl}piperidin-1-yl)methyl]-1-(2-methoxyethyl)-1H-imidazo[4,5-b]pyrazine-6-carboxylic acid], in that order: 5.7 nM, 78%, 130 nM and 94%.
For `Cn1nccc1Cn1c(CN2CCC(c3cccc(OCc4ccc(Cl)cc4F)n3)CC2)nc2ccc(C(=O)O)cc21` [Compound 296B, 2-[(4-{6-[(4-chloro-2-fluorobenzyl)oxy]pyridin-2-yl}piperidin-1-yl)methyl]-1-[(1-methyl-1H-pyrazol-5-yl)methyl]-1H-benzimidazole-6-carboxylic acid] the same measures were 96 nM, 86%, 1400 nM and 94%.
`O=C(O)c1ccc2nc(CN3CCC(c4cccc(OCc5ccc(Cl)cc5F)n4)CC3)n(CCC(F)(F)F)c2c1` [Compound 346B, 2-[(4-{6-[(4-chloro-2-fluorobenzyl)oxy]pyridin-2-yl}piperidin-1-yl)methyl]-1-(3,3,3-trifluoropropyl)-1H-benzimidazole-6-carboxylic acid]: at human GLP-1R [1], the concentration for a half-maximal effect (EC50) was 21 nM and the maximum response (Emax) worked out at 79%. This compound also returned a concentration for a half-maximal effect (EC50) at human GLP-1R [2] of 540 nM.
As for `N#Cc1ccc(COc2nc(C3CCN(Cc4nc5ccc(C(=O)O)cc5n4C[C@@H]4CCO4)CC3)ccc2F)cc1` [Compound 127B, 2-[(4-{6-[(4-cyanobenzyl)oxy]-5-fluoropyridin-2-yl}piperidin-1-yl)methyl]-1-[(2S)-oxetan-2-ylmethyl]-1H-benzimidazole-6-carboxylic acid], at human GLP-1R [1], the concentration for a half-maximal effect (EC50) is 4.9 nM and the Emax is 77%. Moreover, at human GLP-1R [2], the 50% effective concentration (EC50) worked out at 75 nM and the Emax was 83%.
Regarding `Cn1cncc1Cn1c(CN2CCN(c3cccc(OCc4ccc(C#N)cc4F)n3)CC2)nc2ccc(C(=O)O)cc21` [Compound 154B, 2-[(4-{6-[(4-cyano-2-fluorobenzyl)oxy]pyridin-2-yl}piperazin-1-yl)methyl]-1-[(1-methyl-1H-imidazol-5-yl)methyl]-1H-benzimidazole-6-carboxylic acid], on human GLP-1R [1], the EC50 was 6 nM and the Emax came out at 80%. At human GLP-1R [2], this compound returned a concentration giving a half-maximal response (EC50) of 78 nM and an Emax of 88%.

For the origin of these results see patent US20250235460A1, “COMBINATION THERAPY USING GLUCOSE-DEPENDENT INSULINOTROPIC POLYPEPTIDE RECEPTOR ANTAGONIST COMPOUNDS AND GLP-1 RECEPTOR AGONIST COMPOUNDS” (Pfizer Inc., priority 2024, published 2025).
